# Measurements from patent publication US12195551B2, “Combination of an ErbB-2/ErbB-3 bispecific antibody with endocrine therapy for breast cancer” (Merus N.V., priority 2017, dated 2025).
# Tests used:
# HBCx-34 PDX model = details: model characterisation; cited from earlier work
# HER2 = experiment: Reverse phase protein array (RPPA) in MCF-7 tumor xenografts: HER2; format: in vivo, human; details: vs vehicle group, one-way ANOVA
# Text: FIG. 9. Reverse phase protein array (RPPA) in MCF-7 tumor xenografts treated with vehicle, MCLA-128, Fulvestrant, Tamoxifen, MCLA-128+ Fulvestrant or MCLA-128+ Tamoxifen. Proteins detected in this assay included (phospho)-Akt and (phospho)-HER3 (full data provided in Appendix 4). One-way ANOVA compared levels in all tumors derived from treatment groups with those derived from the PBS group. ** indicates P<0.01.
# Tumors from groups 1-6 were collected when they had reached the maximum tolerated volume, or at the end of the experiment at day 39, which was 10 days after the last dose. Per treatment group, six tumors were included in the Reverse phase protein array (RPPA). The selection of tumors was made so that the average tumor size of the 6 specimens was close to that of the whole group. RPPA analysis was performed as follows: tumors were sectioned and placed on immunohistochemistry slides. Stromal and inflammatory content was macrodissected to purify for tumors cells. Protein lysates were prepared and protein content was quantified. […] Reverse phase protein array (RPPA) data were analyzed using one-way ANOVA to detect significant differences between the treatment groups and the vehicle group. […] Total ERK levels were increased in the single agent groups only, no differences were measured in the other groups or in the phosphorylated ERK analysis. […]
# [1] = system: MCF-7 human breast carcinoma; experiment: Efficacy in nude mouse xenograft model of MCF-7 human breast carcinoma; format: in vivo
# Procedure: MCLA-128 was evaluated as monotherapy and in combination with the SERM Tamoxifen and SERD Fulvestrant (Faslodex®) for efficacy in a nude mouse xenograft model of estrogen responsive MCF-7 human breast carcinoma. The study design also included tumor collection for downstream analysis.
# Treatments began on D1 in mice with established subcutaneous MCF-7 tumors. The study endpoint was intended to be a tumor volume endpoint of 1000 mm3 45 days, whichever came first. […] Tumor regressions, mean tumor growth, and treatment tolerability also were considered.
# The animals were fed ad libitum water (reverse osmosis, 1 ppm Cl) and NIH 31 Modified and Irradiated Lab Diet® consisting of 18.0% crude protein, 6.0% crude fat, and 5.0% crude fiber. The mice were housed on irradiated Enrich-o'Cobs™ Laboratory Animal Bedding in static 85 microisolators on a 12-hour light cycle at […] (68-72° F.) and 40-60% humidity.
# Three days prior to tumor cell implantation, estrogen pellets (0.36 mg estradiol, 60-day release, Innovative Research of America, Sarasota, FL) were implanted subcutaneously between the scapulae of all test animals using a sterilized trocar.
# Xenografts were initiated with cultured MCF-7 human breast carcinoma cells. Tumor cells were grown to mid-log phase in RPMI-1640 medium containing 10% fetal bovine serum, 100 units/mL penicillin G, 100 μg/mL streptomycin sulfate, 2 mM glutamine, 10 mM HEPES, 0.075% sodium bicarbonate and 25 μg/mL gentamicin. On the day of tumor cell implant, the cells were trypsinized, pelleted, and resuspended in phosphate buffered saline (PBS) at a concentration of 1×10e8 cells/mL. Each test mouse received 1×10e7 MCF-7 cells implanted subcutaneously in the right flank, and tumor growth was monitored as their mean volume approached the desired 100 to 150 mm3 range.
# Nineteen days after tumor cell implantation, designated as D1 of the study, the mice were placed into six groups of 15 animals and four groups of six animals, Individual tumor volumes ranged from 75 to 196 mm3 and group mean tumor volumes of 134-137 mm3 on D1. Tumor weight was estimated with the assumption that 1 mg is equivalent to 1 mm3 of tumor volume.
# MCLA-128 was stored at 4° C., was provided pre-formulated at 2.5 mg/mL and ready to dose as 25 mg/kg in a 10 mL/kg dose volume, and was protected from light during storage and handling. Tamoxifen (Sigma-25 Aldrich. Lot No. WXBB5732V) was received as a powder and was stored at 4° C. protected from light. Each week, a 5 mg/mL dose solution was prepared in corn oil, and each mouse received 0.2 mL for a dose of 1 mg/animal. The dose solution was stored at 4° C. Fulvestrant tradename Faslodex® (AstraZeneca, Lot No. LV032, LW466, and LX432) was received as 50 mg/mL stock solution that was stored at 4° C. Each dosing day, the stock was diluted in corn oil to 25 mg/mL, and each mouse received 0.2 mL for a dose of 5 mg/animal.
# Groups 1 and 7 served as controls for efficacy and sampling, respectively, and received MCLA-128 vehicle intraperitoneally (i.p.) on D1, 4, 8, 11, 15, 18, 22, 25, and 29 and corn oil subcutaneously (s.c.) every other day for fifteen doses (qod×15). Groups 2 and 8 were administered MCLA-128 at 25 mg/kg, i.p., on the same schedule as MCLA-128 vehicle. Groups 3 and 9 were administered Faslodex® at 5.0 mg/animal, s.c., once weekly for five weeks (qwk×5). Group 4 was administered Tamoxifen at 1 mg/animal, s.c., qod×15. Groups 5 and 10 received MCLA-128 and Faslodex®, on the regimens described above. Group 6 received MCLA-128 and Tamoxifen on the regimens described above.
# MCLA-128 was administered at a 10 mL/kg dose volume, scaled to the individual body weight of each animal.
compound,measurement,setting,value
CCCCCOC(=O)Nc1nc(=O)n([C@@H]2O[C@H](C)[C@@H](O)[C@H]2O)cc1F [Capecitabine],response of the HBCx-34 PDX model,HBCx-34 PDX model,responder
CC(=O)O[C@@]12CO[C@@H]1C[C@H](O)[C@@]1(C)C(=O)[C@H](O)C3=C(C)[C@@H](OC(=O)[C@H](O)[C@@H](NC(=O)OC(C)(C)C)c4ccccc4)C[C@@](O)([C@@H](OC(=O)c4ccccc4)[C@H]21)C3(C)C [Docetaxel],response of the HBCx-34 PDX model,HBCx-34 PDX model,responder
CC/C(=C(\c1ccccc1)c1ccc(OCCN(C)C)cc1)c1ccccc1 [Tamoxifen],Total HER2 levels (RPPA),HER2,significantly increased
same,% TGI (tumor growth inhibition),"[1]; D25, relative to the control group, MCLA-128 25 mg/kg i.p., Faslodex 5.0 mg/animal, Tamoxifen 1 mg/animal",69%
same,median tumor volume,"[1]; D25, MCLA-128 25 mg/kg i.p., Faslodex 5.0 mg/animal s.c. qwk×5, Tamoxifen 1 mg/animal s.c. qod×15",184 mm3
same,P relative to the control group,"[1]; D25 tumor volumes, Mann-Whitney test",< 0.001
same,anti-tumor efficacy / survival benefit (in words),[1]; MCF-7 nude mouse xenograft model,significantly reduced tumor growth
same,response of the HBCx-34 PDX model,HBCx-34 PDX model,responder
